# From patent US8445492B2, “Method for inhibiting growth of cancer cells and cell telomere and diseases of cell proliferation by using heteroannelated anthraquinone derivative compounds” (National Defense Medical Center, priority 2008, dated 2013)
# How the values were obtained:
# Format in all cases: cell-based
# MOLT-4 = experiment: in vitro test at 1.0×10^−5 M, Blood cancer cell; settings: 1.0×10^−5 molal concentration (M)
# UO-31 [1] = experiment: in vitro test at 1.0×10^−5 M, Kidney cancer cell; settings: 1.0×10^−5 molal concentration (M)
# U251 = experiment: in vitro test at 1.0×10^−5 M, CNS cancer cell; settings: 1.0×10^−5 molal concentration (M)
# SN12C = experiment: in vitro test at 1.0×10^−5 M, Kidney cancer cell; settings: 1.0×10^−5 molal concentration (M)
# ACHN = experiment: in vitro test at 1.0×10^−5 M, Kidney cancer cell; settings: 1.0×10^−5 molal concentration (M)
# HOP-92 = experiment: in vitro test at 1.0×10^−5 M, Non-small cell lung cancer cell; settings: 1.0×10^−5 molal concentration (M)
# T-47D = experiment: NCI DTP in-vitro dose response, Breast Cancer
# OVCAR-4 = experiment: NCI DTP in-vitro dose response, Ovarian Cancer
# HCT-116 = experiment: NCI DTP in-vitro dose response, Colon Cancer
# 786-0 = experiment: NCI DTP in-vitro dose response, Renal Cancer
# UACC-62 = experiment: NCI DTP in-vitro dose response, Melanoma
# CAKI-1 = experiment: NCI DTP in-vitro dose response, Renal Cancer
# BT-549 = experiment: NCI DTP in-vitro dose response, Breast Cancer
# M14 = experiment: NCI DTP in-vitro dose response, Melanoma
# UO-31 [2] = experiment: NCI DTP in-vitro dose response, Renal Cancer
# LOX IMVI = experiment: NCI DTP in-vitro dose response, Melanoma
# TK-10 = experiment: NCI DTP in-vitro dose response, Renal Cancer
# SF-268 = experiment: NCI DTP in-vitro dose response, CNS Cancer
# A498 = experiment: NCI DTP in-vitro dose response, Renal Cancer
# SK-MEL-5 = experiment: NCI DTP in-vitro dose response, Melanoma
# SW-620 = experiment: NCI DTP in-vitro dose response, Colon Cancer
structure (smiles),measurement,setting,value
"CCc1nc2ccc3c(c2[nH]1)C(=O)c1ccccc1C3=O [No. 4, 2-Ethyl-1(3)H-anthra[1,2-d]imidazole-6,11-dione]",inhibition effect on cancer cell line (Table 2 value),MOLT-4,64.17
same,inhibition effect on cancer cell line (Table 2 value),UO-31 [1],23.94
same,inhibition effect on cancer cell line (Table 2 value),U251,60.13
same,inhibition effect on cancer cell line (Table 2 value),SN12C,68.53
same,inhibition effect on cancer cell line (Table 2 value),ACHN,24.97
same,inhibition effect on cancer cell line (Table 2 value),HOP-92,41.43
"O=C1c2ccccc2C(=O)c2c1ccc1nsnc21 [No. 22, Anthra[2,1-c][1,2,5]thiadiazole-6,11-dione]",GI50,"T-47D; Homo sapiens, T47D",0.375 µM
same,CC50,"T-47D; Homo sapiens, T47D, read-out: LC50",7.79 µM
same,Percent Growth,T-47D; Log10 Concentration −4.0,−60%
same,Percent Growth,T-47D; Log10 Concentration −5.0,−59%
same,Percent Growth,T-47D; Log10 Concentration −6.0,22%
same,Percent Growth,T-47D; Log10 Concentration −7.0,88%
same,Percent Growth,T-47D; Log10 Concentration −8.0,91%
same,TGI,T-47D; T-47D,1.87E−6
same,GI50,"OVCAR-4; Homo sapiens, OVCAR-4",0.52 µM
same,CC50,"OVCAR-4; Homo sapiens, OVCAR-4, read-out: LC50",4.19 µM
same,Percent Growth,OVCAR-4; Log10 Concentration −4.0,−100%
same,Percent Growth,OVCAR-4; Log10 Concentration −5.0,−100%
same,Percent Growth,OVCAR-4; Log10 Concentration −6.0,32%
same,Percent Growth,OVCAR-4; Log10 Concentration −7.0,94%
same,Percent Growth,OVCAR-4; Log10 Concentration −8.0,107%
same,TGI,OVCAR-4; OVCAR-4,1.76E−6
same,TGI,HCT-116; HCT-116,1.06E−5
same,GI50,"HCT-116; Homo sapiens, HCT-116",2.84 µM
same,CC50,"HCT-116; Homo sapiens, HCT-116, read-out: LC50",> 100 µM
same,Percent Growth,HCT-116; Log10 Concentration −4.0,−31%
same,Percent Growth,HCT-116; Log10 Concentration −5.0,1%
same,Percent Growth,HCT-116; Log10 Concentration −6.0,91%
same,Percent Growth,HCT-116; Log10 Concentration −7.0,97%
same,Percent Growth,HCT-116; Log10 Concentration −8.0,99%
same,TGI,786-0; 786-0,1.16E−5
same,GI50,"786-0; Homo sapiens, 786-0",3.93 µM
same,CC50,"786-0; Homo sapiens, 786-0, read-out: LC50",52.7 µM
same,Percent Growth,786-0; Log10 Concentration −4.0,−71%
same,Percent Growth,786-0; Log10 Concentration −5.0,5%
same,Percent Growth,786-0; Log10 Concentration −6.0,116%
same,Percent Growth,786-0; Log10 Concentration −7.0,106%
same,Percent Growth,786-0; Log10 Concentration −8.0,105%
same,GI50,"UACC-62; Homo sapiens, UACC-62",2.31 µM
same,CC50,"UACC-62; Homo sapiens, UACC-62, read-out: LC50",96.2 µM
same,Percent Growth,UACC-62; Log10 Concentration −4.0,−50%
same,Percent Growth,UACC-62; Log10 Concentration −5.0,−23%
same,Percent Growth,UACC-62; Log10 Concentration −6.0,92%
same,Percent Growth,UACC-62; Log10 Concentration −7.0,91%
same,Percent Growth,UACC-62; Log10 Concentration −8.0,89%
same,TGI,UACC-62; UACC-62,6.29E−6
same,TGI,CAKI-1; CAKI-1,6.16E−6
same,GI50,"CAKI-1; Homo sapiens, CAKI-1",2.18 µM
same,CC50,"CAKI-1; Homo sapiens, CAKI-1, read-out: LC50",41.5 µM
same,Percent Growth,CAKI-1; Log10 Concentration −4.0,−66%
same,Percent Growth,CAKI-1; Log10 Concentration −5.0,−23%
same,Percent Growth,CAKI-1; Log10 Concentration −6.0,88%
same,Percent Growth,CAKI-1; Log10 Concentration −7.0,95%
same,Percent Growth,CAKI-1; Log10 Concentration −8.0,90%
same,TGI,BT-549; BT-549,3.55E−5
same,GI50,"BT-549; Homo sapiens, BT-549",13.1 µM
same,CC50,"BT-549; Homo sapiens, BT-549, read-out: LC50",96.2 µM
same,Percent Growth,BT-549; Log10 Concentration −4.0,−52%
same,Percent Growth,BT-549; Log10 Concentration −5.0,64%
same,Percent Growth,BT-549; Log10 Concentration −6.0,126%
same,Percent Growth,BT-549; Log10 Concentration −7.0,102%
same,Percent Growth,BT-549; Log10 Concentration −8.0,92%
same,GI50,"M14; Homo sapiens, M14",2.44 µM
same,CC50,"M14; Homo sapiens, M14, read-out: LC50",> 100 µM
same,Percent Growth,M14; Log10 Concentration −4.0,−41%
same,Percent Growth,M14; Log10 Concentration −5.0,−32%
same,Percent Growth,M14; Log10 Concentration −6.0,102%
same,Percent Growth,M14; Log10 Concentration −7.0,100%
same,Percent Growth,M14; Log10 Concentration −8.0,100%
same,TGI,M14; M14,5.78E−6
same,GI50,"UO-31 [2]; Homo sapiens, UO-31",1.95 µM
same,CC50,"UO-31 [2]; Homo sapiens, UO-31, read-out: LC50",7.41 µM
same,Percent Growth,UO-31 [2]; Log10 Concentration −4.0,−66%
same,Percent Growth,UO-31 [2]; Log10 Concentration −5.0,−72%
same,Percent Growth,UO-31 [2]; Log10 Concentration −6.0,100%
same,Percent Growth,UO-31 [2]; Log10 Concentration −7.0,118%
same,Percent Growth,UO-31 [2]; Log10 Concentration −8.0,111%
same,TGI,UO-31 [2]; UO-31,3.81E−6
same,GI50,"LOX IMVI; Homo sapiens, LOX IMVI",1.03 µM
same,CC50,"LOX IMVI; Homo sapiens, LOX IMVI, read-out: LC50",> 100 µM
same,TGI,LOX IMVI; LOX IMVI,3.56E−6
same,Percent Growth,LOX IMVI; Log10 Concentration −4.0,−33%
same,Percent Growth,LOX IMVI; Log10 Concentration −5.0,−42%
same,Percent Growth,LOX IMVI; Log10 Concentration −6.0,51%
same,Percent Growth,LOX IMVI; Log10 Concentration −7.0,98%
same,Percent Growth,LOX IMVI; Log10 Concentration −8.0,101%
same,GI50,"TK-10; Homo sapiens, TK-10",34.9 µM
same,CC50,"TK-10; Homo sapiens, TK-10, read-out: LC50",> 100 µM
same,Percent Growth,TK-10; Log10 Concentration −4.0,−7%
same,Percent Growth,TK-10; Log10 Concentration −5.0,118%
same,Percent Growth,TK-10; Log10 Concentration −6.0,144%
same,Percent Growth,TK-10; Log10 Concentration −7.0,133%
same,Percent Growth,TK-10; Log10 Concentration −8.0,117%
same,TGI,TK-10; TK-10,8.80E−5
same,GI50,"SF-268; Homo sapiens, SF-268",3.55 µM
same,CC50,"SF-268; Homo sapiens, SF-268, read-out: LC50",> 100 µM
same,Percent Growth,SF-268; Log10 Concentration −4.0,−46%
same,Percent Growth,SF-268; Log10 Concentration −5.0,17%
same,Percent Growth,SF-268; Log10 Concentration −6.0,90%
same,Percent Growth,SF-268; Log10 Concentration −7.0,98%
same,Percent Growth,SF-268; Log10 Concentration −8.0,101%
same,TGI,SF-268; SF-268,1.87E−5
same,TGI,A498; A498,>1.00E−4
same,GI50,"A498; Homo sapiens, A498",> 100 µM
same,CC50,"A498; Homo sapiens, A498, read-out: LC50",> 100 µM
same,Percent Growth,A498; Log10 Concentration −4.0,84%
same,Percent Growth,A498; Log10 Concentration −5.0,100%
same,Percent Growth,A498; Log10 Concentration −6.0,96%
same,Percent Growth,A498; Log10 Concentration −7.0,104%
same,Percent Growth,A498; Log10 Concentration −8.0,105%
same,GI50,"SK-MEL-5; Homo sapiens, SK-MEL-5",1.13 µM
same,CC50,"SK-MEL-5; Homo sapiens, SK-MEL-5, read-out: LC50",4.83 µM
same,Percent Growth,SK-MEL-5; Log10 Concentration −4.0,−100%
same,Percent Growth,SK-MEL-5; Log10 Concentration −5.0,−100%
same,Percent Growth,SK-MEL-5; Log10 Concentration −6.0,58%
same,Percent Growth,SK-MEL-5; Log10 Concentration −7.0,85%
same,Percent Growth,SK-MEL-5; Log10 Concentration −8.0,98%
same,TGI,SK-MEL-5; SK-MEL-5,2.34E−6
same,GI50,"SW-620; Homo sapiens, SW-620",8.55 µM
same,CC50,"SW-620; Homo sapiens, SW-620, read-out: LC50",69.2 µM
same,Percent Growth,SW-620; Log10 Concentration −4.0,−68%
same,Percent Growth,SW-620; Log10 Concentration −5.0,46%
same,Percent Growth,SW-620; Log10 Concentration −6.0,107%
same,Percent Growth,SW-620; Log10 Concentration −7.0,103%
same,Percent Growth,SW-620; Log10 Concentration −8.0,106%
same,TGI,SW-620; SW-620,2.52E−5
